Test [1] relates to mouse model of AngII-induced myocardial fibrosis. Kind of test: AngII-induced myocardial fibrosis mouse model, 1 week, heart mRNA by RT-qPCR. Type of test: in vivo. The procedure:
(§1) Four weeks after implantation, cardiac ultrasound was performed, mice were euthanized, and hearts were collected. A similar set-up was used for the 1-week study (Alzet, model 1007D) in male mice (n = 9-10 mice in every group).
RNA was extracted using Nucleospin RNA XS (Macherey-Nagel, 740902.50) according to the manufacturer’s instructions. For cDNA synthesis, total RNA was added to a mixture containing buffer with random hexamers and reverse transcriptase enzyme (TaqMan reverse transcription reagents, Applied biosystems, N8080234) after which samples were incubated for 10 min at 25 °C, 30 min at 48 °C, and 5 min at 95 °C. RT-qPCR was performed on QuantStudio 3 Real-time PCR system (Applied Biosystems) using Taqman Universal PCR Master Mix (Applied Biosystems, 4304437) and Taqman primers according to the manufacturer’s instructions. Settings were as follows: […] followed by 10 min at 95 °C, 40 cycles (45 cycles for ERBB4) of denaturation at 95 °C for 15 s, and 1 min at 60 °C. All reactions were run in duplicate, and all data were normalized against housekeeping genes glyceraldehyde-3-phosphate dehydrogenase (GAPDH), beta-actin (ACTB), or phosphoglycerate kinase 1 (PGK1). Expression levels were calculated using the comparative cycle method and expressed as fold change (FC) to appropriate controls. The following TaqMan primers were used (Thermo Fisher Scientific): GAPDH (Hs02758991_g1, Mm99999915_g1 and Rn01775763_g1), PGK1 (Hs99999906_m1), ID2 (Hs04187239_m1), BMPR1B (Hs01010965_m1), CACNA2D4 (Hs00297782_m1), DUSP2 (Hs00358879_m1), NR4A1 (Hs00374226_m1), SGK1 (Hs00178612_m1), COL1A1 (Mm00801666_g1), COL3A1 (Hs00943809_m1 and Mm00802305_g1), ERBB4 (Hs00955525_m1 and Rn00572447_m1), ACTB (Mm02619580_g1) and ANP (Mm01255747_g1).

The subject of test [2] is Erbb4-null mice. Kind of test: AngII-induced myocardial fibrosis in Erbb4-null mice, Masson's trichrome fibrosis. The format is in vivo, mouse. Also on record: Perivascular fibrosis: dose or concentration left out as unconfirmed. The procedure:
as §1
(§2) Floxed Erbb4 mice (Erbb4^f/f; C57BL/6N; 129-Erbb4tm1Fej/Mmucd, MMRRC, #010439-UCD) were crossed with CAGGCre-ER^TM mice (Jackson Laboratory, 004682) containing the Tg(CAG-cre/Esr1*)5Amc transgene that expresses Cre recombinase under the control of a chicken beta actin promoter/enhancer coupled to the human cytomegalovirus immediate-early gene enhancer, resulting in expression of tamoxifen-inducible Cre-ERT in most cell types. To induce Cre recombinase-mediated deletion of Erbb4, eleven-week-old female and male iCAGGCre-ER^TM/Erbb4^f/f mice were intraperitoneally injected with tamoxifen (Merck, T5648; 10 mg/kg; in corn oil) daily for 5 consecutive days.
(§3) Hearts were fixed in 4% PFA, paraffin-embedded, and cut into 5-µm sections. Images were acquired with an Olympus BX43 microscope (Olympus Stream Motion Software) or a CELENA® S Digital Imaging System and analyzed with ImageJ 2.14.0 software. Collagen distribution was visualized by Masson’s trichrome staining. Cardiac total fibrosis was expressed as the ratio of positively stained fibrotic area (blue) to the total area and perivascular fibrosis as the ratio of fibrotic area to vascular lumen area. Scar size was determined by measuring the scar length over the […]. Hypertrophy and vascularisation were visualized via an isolectin-B4/WGA/DAPI staining. Quantification was performed by a person blinded to the treatment protocol.

The test system of the next test is iCAGCre-Erbb4f/f mice. The experiment in a line: AngII-induced fibrosis in iCAGCre-Erbb4f/f mice injected with corn oil without tamoxifen. The format is in vivo, mouse.
Excerpt: as §2, §3
Supplementary Figure 6. Effect of AngII in male WT mice with compound NA-1 and the validation of genotype and phenotype of iCAGCre-Erbb4 f/f mice. […]
Uncropped gel is presented in Supplementary Figure 9. (c) Survival curve depicting the effects of 1000 ng/kg AngII treatment on mouse survival (ctrl = black line; 1000 ng/kg AngII = red line; n=6 male and female mice in Ctrl group and n=15 mice who received 1000 ng/kg AngII treatment). (d) Representative images of Masson’s trichrome staining of AngII-induced myocardial fibrosis in iCAGCre- […]
and n=10 male and female ice in AngII/Veh group). Scale bar = 500 µm for total fibrosis, scale bar = 50 µm for perivascular fibrosis. […]

Test [3] concerns Erbb4-null mice. Kind of test: Acute high-dose DOX-induced cardiotoxicity, cTnI ELISA, female Erbb4-null mice. Type of test: in vivo, mouse. Also on record: In vivo DOX experiment in male+female Erbb4-null mice with EF-1 (cTnI): unit not given here. On the procedure: DOX (20 mg/kg; Pfizer, 4222) was administered intraperitoneally once on day 4 to induce cardiotoxicity. On day 7, mice were euthanized, serum samples were collected via the retrobulbar sinus and hearts were excised.
as §2
Serum samples were centrifuged for 15 min (1000 × g) at 4 °C and analyzed using a mouse cardiac Troponin I Type 3 ELISA kit (Novus Biologicals, NBP3–00456), according to the manufacturer’s instructions. Briefly, a 96-well microplate was coated with an anti-mouse TNNI3/cTnI primary antibody (Capture Antibody Solution). Standard solution or samples (100 μL) were added to the plate and incubated for 90 min at 37 °C. […]
(An ELISA detects its analyte on a solid surface through an enzyme-linked reagent.)

Where [4] appears, read: AngII/EF-1, male wild type mice, EF-1 2 mg/kg/day, single animals, 2 mg/kg/day.

Here are results for one compound from paper PMC11724075, “Small-molecule-induced ERBB4 activation to treat heart failure” (Nature Communications, 2025).

Values joined by “and” are separate entries in the source; they are usually repeats but may differ in a detail not shown here. Equal values may be shown once.

As to `O=C(NC1CC1)C(Sc1nc2ccccc2c(=O)n1C1CCCC1)c1ccccc1` (stereo not shown) [EF-1], in test [1] (setting [4]), the “Col1a1 mRNA in heart, normalized FC compared to Ctrl” value was 0.89 and 1.45 and 5.23 and 1.1 and 0.7 and 1.4 and 1.83 and 0.45; the “Col3a1 mRNA in heart, normalized FC compared to Ctrl” value is 0.3868 and 1.25 and 2.15 and 0.45 and 0.1877 and 2.4002 and 0.7979 and 0.9965; the “Nppa mRNA in heart, normalized FC compared to Ctrl” value is 0.84 and 6.51 and 3.53 and 3.93 and 1.08 and 3.77 and 5.6 and 2.74 and 3.12. In test [1] (male wild type mice), the “effect on AngII-induced Col1a1 and Col3a1 mRNA expression (in words)” value is “significantly reduced”; the “effect on atrial natriuretic peptide (Nppa) expression (in words)” value is “significantly decreased”. Further, the Total fibrosis with Erbb4-null mice [2] (male+female Erbb4-null mice, AngII/EF-1, AngII 400 ng/kg/day, single animals) was 3.25 and 2.45 and 2.12 and 2.92 and 4.07. Further, the Perivascular fibrosis in the test with Erbb4-null mice [2] (male+female Erbb4-null mice, AngII/EF-1, single animals) is 0.6515 and 1.352 and 0.6814 and 0.7388 and 1.066. Also, in the test on Erbb4-null mice [2] (mouse, in vivo), the “effect on AngII-induced interstitial or perivascular fibrosis in Erbb4-null mice (in words)” value is given as “did not significantly prevent interstitial or perivascular AngII-induced fibrosis”. In the test on iCAGCre-Erbb4f/f mice (AngII/EF-1, individual animals), the “Perivascular fibrosis male+female in vivo corn oil-treated iCAGCre-Erbb4f/f mice with EF-1” value was 0.8706 and 1.275 and 0.6537 and 2.675 and 0.6132 and 2.541 and 1.901 and 0.8014; the “Total fibrosis male+female in vivo corn oil-treated iCAGCre-Erbb4f/f mice with EF-1” value is 3.59 and 3.39 and 3.18 and 4.74 and 4.82 and 3.84 and 3.53 and 4.29 and 4.51. For the same compound, the “inhibitory effects on AngII-induced interstitial and perivascular fibrosis (in words)” value in the test with iCAGCre-Erbb4f/f mice (iCAGCre-Erbb4f/f mice injected with corn oil without tamoxifen) is “preserved”. The “effect on DOX-induced increase in cTnI plasma levels (in words)” value in the test on Erbb4-null mice [3] (female Erbb4-null mice) was “did not prevent the increase in cTnI plasma levels”. Also, the “In vivo DOX experiment in male+female Erbb4-null mice with EF-1 (cTnI)” value with Erbb4-null mice [3] (male+female Erbb4-null mice, DOX/EF-1 group, individual animals, Fig. 6d) was 3.884 and 54.574 and 87.9141 and 7.084 and 54.129 and 15.8453 and 39.5225 and 62.9332.
